Results published in patent publication US4333952A, “Growth promotors for ruminants” (Beecham Group Limited, priority 1979, dated 1982).
Like-named read-outs stand apart in the source and are kept apart here.

Experiments:
methanogenesis = assay: in vivo gas collection screen in sheep (respirometer, methanogenesis and hydrogen evolution); details: 5 week period
Experimental: In vivo studies in a "gas collection screen":
Groups of 4, 50 kg sheep were fed diets containing one of the compounds of formula (I) over a 5 week period. A different sheep from each group was put into a respirometer for 24 hours each day. Each sheep was thus monitored once in every […], gas flow was maintained by a peristaltic pump and measured using a commercial gas meter and a sub-sample collected in a butyl-rubber inner tube.

rumen fluid = assay: in vitro incubation of buffered rumen fluid (methane inhibition, propionate enhancement, headspace gases and volatile fatty acids); format: cell-based, sheep; details: for inhibition at 10 ppm / activation at 10 ppm / inhibition at 5 ppm / activation at 5 ppm / inhibition at 2 ppm / inhibition at 3 ppm / activation at 2 ppm / activation at 3 ppm: Ovis aries
Experimental: The compounds were tested for their ability to reduce or inhibit methane production and to enhance propionate formation. The method used is as follows:
The screening system is in vitro incubation of buffered rumen fluid with, or without, the addition of the test compound.
Rumen fluid is removed by suction from two rumenfistulated sheep, just before feeding. The fluid is strained and mixed. The incubation is for twenty hours in a shaking water-bath at 39° C. Each incubation flask contains: 30 ml McDougall's bicarbonate buffer, pH 6.7-6.9, 10 ml strained rumen fluid, 200 mg substrate (the substrate is a ground sample of the diet on which the sheep has been fed) and 1 ml 10% aqueous ethanol containing 0.2% Tween 80 and the compound under examination. Samples are taken at the end of the incubation period for analysis of headspace gases and volatile fatty acids, by g.l.c.
The compounds were tested at 10 ppm/flask, except for the compounds of Examples 9 and 10 which were tested at 5 ppm/flask.
Selected compounds were also tested according to the above protocol at doses of 2 and 3 ppm, the results being given in Table 2 below.
The compound of Example 1 was further tested in an in vitro a dose response study, according to the protocol above, at the doses shown in Table 3 below.

[1] = 20 h, read-out: VFA production % difference from control, Acetate
[2] = 20 h, read-out: VFA production % difference from control, Butyrate
[3] = 20 h, read-out: VFA production % difference from control, Propionate
[4] = 20 h, read-out: VFA production % difference from control, TVFA
[5] = 10 ppm/flask, 20 h, 39° C., read-out: % inhibition of methane
[6] = 5 ppm/flask (Examples 9 and 10), 20 h, 39° C.
[7] = 20 h, read-out: VFA production % change from control, Acetate
[8] = 20 h, read-out: VFA production % change from control, Butyrate
[9] = 20 h, read-out: VFA production % change from control, Propionate
[10] = 20 h, read-out: VFA production % change from control, TVFA
[11] = Table 2, 2 ppm, read-out: % inhibition of methane
[12] = Table 2, 3 ppm, read-out: % inhibition of methane

SMILES	% hydrogen present (rumen fluid; 10 ppm/flask, 20 h, 39° C.)	Molar % VFA Acetate (rumen fluid; 10 ppm/flask, 20 h, 39° C.)	Molar % VFA Butyrate (rumen fluid; 10 ppm/flask, 20 h, 39° C.)	Molar % VFA Propionate (rumen fluid; 10 ppm/flask, 20 h, 39° C.)	TVFA (rumen fluid; 10 ppm/flask, 20 h, 39° C.)	inhibition at 10 ppm (rumen fluid; [1])	activation at 10 ppm (rumen fluid; [2])	activation at 10 ppm (rumen fluid; [3])	inhibition at 10 ppm (rumen fluid; [4])	inhibition at 10 ppm (rumen fluid; [5])	inhibition at 2 ppm (rumen fluid; [7])	inhibition at 3 ppm (rumen fluid; [7])	activation at 2 ppm (rumen fluid; [8])	activation at 3 ppm (rumen fluid; [8])	activation at 2 ppm (rumen fluid; [9])	activation at 3 ppm (rumen fluid; [9])	inhibition at 2 ppm (rumen fluid; [10])	inhibition at 3 ppm (rumen fluid; [10])	inhibition at 2 ppm (rumen fluid; [11])	% hydrogen in headspace gases (rumen fluid; Table 2, 2 ppm)	further results
CC[C@@]1([C@@H]2O[C@@H]([C@H]3O[C@@](O)(CO)[C@H](C)C[C@@H]3C)C[C@@H]2C)CC[C@H]([C@]2(C)CC[C@]3(C[C@H](O)[C@@H](C)[C@@H]([C@@H](C)[C@@H](OC)[C@H](C)C(=O)O)O3)O2)O1 [Monensin, reference compound]																					methane inhibition (methanogenesis; 50 mg/sheep/day, same study): 41%
O=C(CC(O)C(Cl)(Cl)Cl)c1ccc(Cl)cc1 (stereo not drawn) [Example 8, 1-p-Chlorophenacyl-2-hydroxy-3-trichloropropane]	0.05%	63.5 Molar %	9.8 Molar %	23.7 Molar %	50.5 μM/ml	23.1%	50.7%	42.4%	6.5%	34.1%											
OC(CC(O)C(Cl)(Cl)Cl)c1ccc(Cl)cc1 (stereo not drawn) [Example 9, 1-p-Chlorophenyl-1,3-dihydroxy-4,4,4-trichlorobutane]																					% hydrogen present (rumen fluid; [6]): 0.64%; Molar % VFA Acetate (rumen fluid; [6]): 59.9 Molar %; Molar % VFA Butyrate (rumen fluid; [6]): 10.7 Molar %; Molar % VFA Propionate (rumen fluid; [6]): 26.4 Molar %; TVFA (rumen fluid; [6]): 47.7 μM/ml; inhibition at 5 ppm (rumen fluid; [1]): 38.5%; activation at 5 ppm (rumen fluid; [2]): 59.7%; activation at 5 ppm (rumen fluid; [3]): 53.2%; inhibition at 5 ppm (rumen fluid; [4]): 15.5%; inhibition at 5 ppm (rumen fluid; 5 ppm/flask (Examples 9 and 10), 20 h, 39° C., read-out: % inhibition of methane): 50.7%
OC(COc1ccc(Cl)cc1)C(Cl)(Cl)Cl (stereo not drawn) [Example 2, 1,1,1-Trichloro-3-p-chlorophenoxypropan-2-ol]	2.49%	58.5 Molar %	14.1 Molar %	24.1 Molar %	56.9 μM/ml	38.5%	22.7%	53.2%	17.5%	98.5%	22.6%	39%	2%	10.2%	25.2%	28.4%	11.5%	22.7%	33.3%	0.09%	inhibition at 3 ppm (rumen fluid; [12]): 54.5%; % hydrogen in headspace gases (rumen fluid; Table 2, 3 ppm): 0.8%
OC(CN(CC(O)C(Cl)(Cl)Cl)c1ccccc1)C(Cl)(Cl)Cl (stereo not drawn) [Example 7, N,N-Di (3,3,3-Trichloro-2-hydroxypropyl)aniline]	2.17%	61.9 Molar %	9.72 Molar %	24.8 Molar %	56.2 μM/ml					87.9%											inhibition at 10 ppm (rumen fluid; 10 ppm/flask, 20 h, 39° C., read-out: VFA production % difference from control, Acetate): 40.8%; activation at 10 ppm (rumen fluid; 10 ppm/flask, 20 h, 39° C., read-out: VFA production % difference from control, Butyrate): 18.9%; activation at 10 ppm (rumen fluid; 10 ppm/flask, 20 h, 39° C., read-out: VFA production % difference from control, Propionate): 39%; inhibition at 10 ppm (rumen fluid; 10 ppm/flask, 20 h, 39° C., read-out: VFA production % difference from control, TVFA): 24.7%
CN(CC(O)C(Cl)(Cl)Cl)c1ccccc1 (stereo not drawn) [Example 5, 1,1,1-Trichloro-3-N-methylanilinopropan-2-ol]	1.9%	59.1 Molar %	14.0 Molar %	24.0 Molar %	57.5 μM/ml	36.3%	23.9%	54.6%	16.1%	92.7%	4.3%		0.8%		0.8%		3.1%		4.2%	0.02%	
OC(CNc1ccccc1)C(Cl)(Cl)Cl (stereo not drawn) [Example 4, 1,1,1-Trichloro-3-anilinopropan-2-ol]	2.13%	59.3 Molar %	13.7 Molar %	23.9 Molar %	57.2 μM/ml	36.4%	18.2%	52.8%	16.7%	98.5%	12.8%		3%		27.2%		4%		20.8%	0.09%	Hydrogen evolution (methanogenesis; sheep, 75 mg/day in feed): 1.8 liters/24 hours; % inhibition of methanogenesis (methanogenesis; sheep, 75 mg/day in feed, * = significantly different from control, p < 0.01): 11.5%
CN1CCN(CC(O)C(Cl)(Cl)Cl)CC1 (stereo not drawn) [Compound A, reference compound]	0.062%	65.3 Molar %	9.13 Molar %	21.9 Molar %	56.7 μM/ml	35%	9%	19.9%	22.6%	50.6%											
OC(COc1ccccc1Br)C(Cl)(Cl)Cl (stereo not drawn) [Example 3, 1,1,1-Trichloro-3-o-bromophenoxypropan-2-ol]	2.30%	59.1 Molar %	14.2 Molar %	24.1 Molar %	57.2 μM/ml	36.8%	25%	54.3%	16.7%	97.8%	9.1%	35.5%	3.4%	26.8%	11.1%	43.1%	4.5%	15.6%	17.8%	0.02%	inhibition at 3 ppm (rumen fluid; [12]): 54.7%; % hydrogen in headspace gases (rumen fluid; Table 2, 3 ppm): 0.66%
COc1cccc(NCC(O)C(Cl)(Cl)Cl)c1 (stereo not drawn) [Example 6, 1,1,1-Trichloro-3-(m-methoxy)anilinopropan-2-ol]	2.59%	63.2 Molar %	8.50 Molar %	24.9 Molar %	55.4 μM/ml	40.4%	-6.6%	36.8%	25.3%	97.5%	9.3%	41.8%	15.3%	15.2%	12.6%	41.7%	4.5%	21.5%	11.5%	0.03%	inhibition at 3 ppm (rumen fluid; [12]): 77.8%; % hydrogen in headspace gases (rumen fluid; Table 2, 3 ppm): 1.09%
